Experimental data published in patent publication US5821353A, “DNA encoding 1,3 beta-D glucan synthase subunits” (Merck & Co., Inc., priority 1996, dated 1998).
Values after ≈ are worked out from the molar mass of the structure shown. Where two headings read alike, the source gives them in different places. *1 amine or outer side, *2 acyl side, *3 side chain or, on linkers, in order; H or OH if unused. Where a SMILES comes first, the peptide text is derived from it. Bridges are numbered along the chain shown (N, C = ends). [ ]: non-standard residue; d: D form. The star is where a group is joined. ξ: configuration not given here. Orn(4R-OH,5R-OH) = O=C([C@H](C[C@@H](O)[C@@H](O)N[*:3])N[*:1])[*:2]; hTyr(3S-OH,4S-OH) = N[C@H](C(=O)O)[C@H](O)[C@@H](O)c1ccc(O)cc1; ξOrn(4,5-diOH) = O=C(C(CC(O)C(O)N[*:3])N[*:1])[*:2]; ξhTyr(βξ-OH,γξ-OH) = NC(C(=O)O)C(O)C(O)c1ccc(O)cc1; Pro(3S-OH,4S-Me) = C[C@H]1CN[C@H](C(=O)O)[C@H]1O; Benzoyl(4-octyloxy) = CCCCCCCCOc1ccc(C(=O)*)cc1; ξPro(3ξ-OH,4ξ-Me) = CC1CNC(C(=O)O)C1O; Palmitoyl = CCCCCCCCCCCCCCCC(=O)*; Hyp = O=C(O)[CH]1C[CH](O)CN1

What was measured:
[1] = system: S. cerevisiae R560-1 / R560-1C (fks1-2); assay: liquid MIC assay of resistant clone; format: cell-based, Saccharomyces cerevisiae
Procedure: Strain W303-1A was transformed by the spheroplast method (MYG) with yeast genomic libraries obtained from D. Botstein (1982. Cell, 28:145-154). Transformants selected on uracil dropout medium were pooled and stored at -80° C. in 20% glycerol. After determining the titer (colony forming units(CFU)/ml), aliquots of the stocks were spread at .congruent.5×10^3 CFU per plate onto uracil dropout medium containing the semisynthetic echinocandin L-733,560 at 0.5 mcg/ml or 1.25 mcg/ml. This concentration of L-733,560 is sufficient to select for resistant clones. Twenty-seven drug resistant colonies were isolated. […] Briefly, L-733,560 was serially diluted across the wells of a sterile microtiter plate such that the concentration in each row ranged from 16 to 0.03 mcg/ml in 2-fold increments after an equal volume of a cell suspension in liquid uracil dropout medium was added. After 24 h at 30° C., plates were read in a spectrophotometer at a wavelength of 600 nm, and the percent of control growth in each well (relative to a no-drug control well) was calculated. […]
Because this strain was isolated as a transfornant from the genomic library, it was expected that resistance would be due to the gene residing on the plasmid contained in R560-1. […] R560-1C was mated to the wild type strain W303-1B, sporulated, dissected, and the sensitivity to L-733,560 quantitated by liquid MIC assay. […]

[2] = system: S. cerevisiae YFK798 (fks1-1 + CN); assay: primary screen, zone size on agar (calcineurin counter screen); format: cell-based, Saccharomyces cerevisiae; settings: 20 ng FK506, 10 mcg CsA, 10 mcg L733,560, 20 mcg aculeacin, 20 mcg papulacandin, 48 h
Procedure: Counter screening strains were devised for identifying calcineurin inhibitors. Overexpression of yeast calcineurin in the fks1-1 mutant (strain YFK798) constitutes the most general of these. […] Glucan synthase inhibitors show neither effect and thus can be distinguished from calcineurin inhibitors.
(§1) Each strain is grown at 28°-30° C. in YPAD/10 mM CaCl2 medium with shaking at 220 rpm (to mid or late log phase). The cultures are diluted 1:10 with water, and the OD values of the dilutions are measured at 600 nm (against a blank of YPAD/10 mM CaCl2 similarly diluted 1:10 in water). The OD value is multiplied by 10 to estimate the OD of the culture. Portions (100 ml) of YPAD/10 mM CaCl2 medium containing 1.5% agar, equilibrated at 45° C. in a water bath, are seeded with culture such that the final cell density in the agar would have an OD value of 0.015 (i.e., 3×10^6 cfu/ml; a sample calculation is provided below). The seeded agar is poured into 500 cm^2 Nunc plates. Once the agar plates have solidified, 10 mcL aliquots of samples containing test compounds, such as fermentation extracts, are dissolved in water, 100% methanol or ethanol, or up to 50% DMSO and are placed on each member of the two-plate set in 11 by 8 arrays.
(§2) The plates are incubated for 48 h at 28°-30° C. Diameters of the zones are read to the outermost edge and recorded in mm. The clarity of the zone is reported as clear (no designation), hazy (h), or very hazy (vh). Very hazy zones are best seen by viewing the plate under an elevated light placed between the assay dish and a dark wall.

[3] = system: S. cerevisiae YFK0931-07B; assay: MIC assay; format: cell-based; settings: Saccharomyces cerevisiae, YFK093107B, 42 h
Procedure: (§3) The sensitivities of pcr1(fks2-1) fks1-1 and pcr1(fks2-1) FKS1 strains to L-733,560, L-636,947 (Aculeacin), and L-687,781 (Dihydropapulocandin) were determined in MIC assays. Briefly, strains were grown to stationary phase in 5.0 ml of liquid YPAD medium. MY2256 precultures were grown in liquid YPAD10Ca. MIC assays were performed in flat well microtiter plates in triplicate. Each well of the microtiter plate was filled with 100 mcL of YPAD medium. To the first well, 100 mcL of a 4× solution of drug in YPAD medium was added. To serve as a control, a stock solution of […] of YPAD was made. 100 mcL of this solution was added to the initial well for strains grown in the presence of solvent but the absence of drug. Two-fold serial dilutions of the drug were performed down the plate.
(§4) Cultures were diluted to 5×10^5 cells/ml in YPAD (1 OD660 =3.3×10^7 cells/ml). 100 mcL of diluted culture was added to each well, resuspended, and incubated at 28° C. After 42 hours, cultures were resuspended and cells densities measured in an SLT Laboratories 340 ATTC microtiter plate reader.

[4] = system: S. cerevisiae MY2256; assay: MIC assay; format: cell-based; settings: Saccharomyces cerevisiae, MY2256, 42 h
Procedure: as §3, §4

[5] = system: S. cerevisiae FKS1 pcr1 spores; assay: drug phenotype of segregants from tetrad analysis; format: cell-based, Saccharomyces cerevisiae
Source text: YFK0996-11B (MATa fks1-1 pcr1) was also crossed to YFK0005 (MATalpha FKS1 PCR1). In this cross, the pcr1 and fks1-1 mutations segregate independently. In the 16 four-spore and 20 three-spore tetrads, the segregation pattern of 1 Parental Ditype: 1 Non Parental Ditype : 4 Tetratype tetrads is indicative of two unlinked genes. […] Strains MY2257 (also known as YFK1088-23B, MATa FKS1 +pcr1), MY2258 (also known as YFK1088-16D, MATalpha FKS1+pcr1), and YFK1088-02D (MATa FKS1 +pcr1) were segregants from this cross. As shown in the table below, these segregants contain the pcr1 mutation in a wild-type FKS1 background and lack plasmid pDL1 present in the original mutant.

[6] = system: S. cerevisiae R560-1C; assay: secondary screen, zone size on agar; format: cell-based, Saccharomyces cerevisiae; settings: 20 ng FK506, 10 mcg CsA, 10 mcg L733,560, 20 mcg aculeacin, 20 mcg papulacandin
Procedure: (§5) For positively identifying glucan synthase inhibitors, screening with strain R560-1C and its parent W303-1A was instituted in a manner identical to that described for calcineurin inhibitors. Complete loss of a zone, or marked reduction in size, on R560-1C versus W303-1A indicates a glucan synthase inhibitor. No zones are seen with calcineurin inhibitors using this pair of strains.
as §1, §2

[7] = system: S. cerevisiae W303-1A; assay: secondary screen, zone size on agar; format: cell-based, Saccharomyces cerevisiae; settings: 20 ng FK506, 10 mcg CsA, 10 mcg L733,560, 20 mcg aculeacin, 20 mcg papulacandin
Procedure: as §5, §1, §2

[8] = system: S. cerevisiae YFK007 (wild type); assay: primary screen, zone size on agar; format: cell-based, Saccharomyces cerevisiae; settings: 20 ng FK506, 10 mcg CsA, 10 mcg L733,560, 20 mcg aculeacin, 20 mcg papulacandin, 48 h
Procedure: as §1, §2

[9] = system: S. cerevisiae YFK532-7C (fks1-1); assay: primary screen, zone size on agar; format: cell-based, Saccharomyces cerevisiae; settings: 20 ng FK506, 10 mcg CsA, 10 mcg L733,560, 20 mcg aculeacin, 20 mcg papulacandin, 48 h
Procedure: as §1, §2

[10] = system: S. cerevisiae haploid strain with the insertion-deletion allele (fks1-5::HIS3 / fks1-6::HIS3); assay: phenotype of haploid strain with FKS1 insertion-deletion allele; format: cell-based, Saccharomyces cerevisiae
Source text: An insertion-deletion allele of the fks1-1 complementing DNA was created in the following manner. The 8.8-kb SphI-PstI fragment of pFF133 was inserted between the SphI and PstI sites of the polylinker of the E. coli vector pGEM-5Zf(+) (Promega, Madison, Wis.) giving plasmid pFF174. The 1.3-kb BamHI-XhoI HIS3 fragment from plasmid pJJ215 (J. S. Jones and L. Prakash, Yeast, 6:363-366 (1990)) was inserted by blunt-end ligation (see Current Protocols, p. 3.5.10) between the two KpnI sites of plasmid pFF174 giving plasmids pFF186 (sense orientation) and pFF187 (antisense orientation). The 6.6-kb insertion-deletion fragments were excised by digestion with SstI+SphI and purified by agarose gel electrophoresis. The insertion-deletion mutation was created by one-step gene replacement (see R. Rothstein, GYG, pp. 281-301). This disruption was confirmed by Southern blot hybridization analysis of genomic DNA digested with PstI and probed with the 8.8-kb SphI-PstI fragment from plasmid pFF174. The undisrupted parent gives a single 9.8-kb genomic fragment which hybridizes with the probe. A disruption mutant in which HIS3 is inserted in the sense orientation, for example YFF2409, gives 3.9- and 3.7-kb fragments, while an antisense disruption mutant, for example YFF2411, gives 4.9- and 2.7-kb fragments. […]

[11] = system: S. cerevisiae YFK532-7C (fks1-1) versus YFK007; assay: sensitivity of fks1-1 mutant relative to FKS1 wild-type strain; format: cell-based, Saccharomyces cerevisiae; settings: calcineurin inhibitors
[12] = system: S. cerevisiae fks1-1 PCR1 YFK0688-14B; assay: MIC assay; format: cell-based, Saccharomyces cerevisiae; settings: less than 10% growth of no-drug control, 42 hours, 28° C.
Procedure: as §3
as §4, with “reader. The MICs concentrations presented in the table below represent the concentrations of drug that result in less than 10% growth of the strain grown in the absence of drug.” for “reader.”

[13] = system: S. cerevisiae FKS1 pcr1 (fks2-1): MY2257, MY2258; assay: MIC assay; format: cell-based, Saccharomyces cerevisiae; settings: less than 10% growth, 42 hours
Procedure: as §3
as §4, with “reader. The MICs concentrations presented in the table below represent the concentrations of drug that result in less than 10% growth of the strain grown in the absence of drug.” for “reader.”

[14] = system: S. cerevisiae fks1-1 pcr1 (fks2-1): MY2256, YFK0996-11B, MY2259, MY2260; assay: MIC assay; format: cell-based, Saccharomyces cerevisiae; settings: less than 10% growth, 42 hours
Procedure: as §3
as §4, with “reader. The MICs concentrations presented in the table below represent the concentrations of drug that result in less than 10% growth of the strain grown in the absence of drug.” for “reader.”

[15] = system: S. cerevisiae wild type YFK0005; assay: MIC assay; format: cell-based, Saccharomyces cerevisiae; settings: less than 10% growth of no-drug control, 42 hours, 28° C.
Procedure: as §3
as §4, with “reader. The MICs concentrations presented in the table below represent the concentrations of drug that result in less than 10% growth of the strain grown in the absence of drug.” for “reader.”

Structure (SMILES)	Primary Screen Zone size (mm) [2]	MIC ([3]; YFK0931-07B, read-out: MIC) [µg/mL]	MIC [4] [µg/mL]	drug resistance phenotype of spores [5]	Secondary Screen Zone size (mm) [6]	Secondary Screen Zone size (mm) [7]	Primary Screen Zone size (mm) [8]	Primary Screen Zone size (mm) [9]	other results
CCCCCCCCOc1ccc(C(=O)N[C@H]2C[C@@H](O)[C@@H](O)NC(=O)[C@@H]3[C@@H](O)[C@@H](C)CN3C(=O)[C@H]([C@@H](C)O)NC(=O)[C@H]([C@H](O)[C@@H](O)c3ccc(O)cc3)NC(=O)[C@@H]3C[C@@H](O)CN3C(=O)[C@H]([C@@H](C)O)NC2=O)cc1 [L-646,991, cilofungin] ({Benzoyl(4-octyloxy)}-[Orn(4R-OH,5R-OH)]T[Hyp][hTyr(3S-OH,4S-OH)]T[Pro(3S-OH,4S-Me)]; lactam 1-C)									resistance phenotype in liquid MIC assay [1]: resistance phenotype
C=CC[C@@H]1/C=C(\C)C[C@H](C)C[C@H](OC)[C@H]2O[C@@](O)(C(=O)C(=O)N3CCCC[C@H]3C(=O)O[C@H](/C(C)=C/[C@@H]3CC[C@@H](O)[C@H](OC)C3)[C@H](C)[C@@H](O)CC1=O)[C@H](C)C[C@@H]2OC [FK506]	13 mm	0.03 (≈ 0.0373 µM)	0.06 (≈ 0.0746 µM)	resistant	none	none	none	15-17 mm	drug sensitivity phenotype [10]: hypersensitive; sensitivity of YFK532-7C relative to YFK007 [11]: at least a thousand fold more sensitive
CCCCCCCCCCCCCCCC(=O)NC1CC(O)C(O)NC(=O)C2C(O)C(C)CN2C(=O)C(C(C)O)NC(=O)C(C(O)C(O)c2ccc(O)cc2)NC(=O)C2CC(O)CN2C(=O)C(C(C)O)NC1=O [L-636,947, aculeacin] (Palmitoyl-[ξOrn(4,5-diOH)]T[Hyp][ξhTyr(βξ-OH,γξ-OH)]T[ξPro(3ξ-OH,4ξ-Me)]; lactam 1-C; configuration not given here)	27-30 mm				17-20 mm	18-22 mm	22-24 mm	27-30 mm	MIC [12]: 0.5 µg/mL (≈ 0.483 µM); MIC [13]: > 40 µg/mL; MIC [14]: > 40 µg/mL; MIC [15]: 1 µg/mL (≈ 0.965 µM)
CCC1C=C(C)CC(C)CC(OC)C2OC(O)(C(=O)C(=O)N3CCCCC3C(=O)OC(C(C)=CC3CCC(O)C(OC)C3)C(C)C(O)CC1=O)C(C)CC2OC (stereo not shown) [FK520]			0.06 (≈ 0.0758 µM)	resistant					MIC [3]: 0.06 µg/mL (≈ 0.0758 µM)
CO[C@H]1C[C@@H]2CC[C@@H](C)[C@@](O)(O2)C(=O)C(=O)N2CCCC[C@H]2C(=O)O[C@H]([C@H](C)C[C@@H]2CC[C@@H](O)[C@H](OC)C2)CC(=O)[C@H](C)/C=C(\C)[C@@H](O)[C@@H](OC)C(=O)[C@H](C)C[C@H](C)/C=C/C=C/C=C/1C [Rapamycin, rapamycin]		0.007 (≈ 0.00766 µM)	0.007 (≈ 0.00766 µM)						
